The structures appear in SMILES notation. Active and inactive are the calls of the source. Some results are limits rather than exact numbers.

Test [1] concerns the target T1, RNA-binding protein pos-1 (Caenorhabditis elegans, UniProt G5EF15).
T1 sequence (G5EF15 whole entry): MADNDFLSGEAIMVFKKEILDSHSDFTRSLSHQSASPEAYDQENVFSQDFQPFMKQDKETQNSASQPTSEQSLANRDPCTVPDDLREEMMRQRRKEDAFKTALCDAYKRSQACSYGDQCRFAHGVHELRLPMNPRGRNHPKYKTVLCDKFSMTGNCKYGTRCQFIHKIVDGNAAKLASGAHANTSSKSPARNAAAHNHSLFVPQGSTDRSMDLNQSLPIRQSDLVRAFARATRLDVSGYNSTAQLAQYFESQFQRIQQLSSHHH
Kind of test: disruptors of C. elegans POS-1 RNA interaction – biochemical, fluorescence polarization, dose response (AID 1964).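 Also: purified POS-1 fused to maltose binding protein made in E. coli; potency of compounds blocking POS-1 binding to fluorescent RNA.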 A general note: Polarisation of emitted light reports the rotation of a fluorescent probe.

Test [2] addresses T2, Zinc finger protein mex-5 (Caenorhabditis elegans, UniProt Q9XUB2).
T2 sequence (Q9XUB2 whole entry): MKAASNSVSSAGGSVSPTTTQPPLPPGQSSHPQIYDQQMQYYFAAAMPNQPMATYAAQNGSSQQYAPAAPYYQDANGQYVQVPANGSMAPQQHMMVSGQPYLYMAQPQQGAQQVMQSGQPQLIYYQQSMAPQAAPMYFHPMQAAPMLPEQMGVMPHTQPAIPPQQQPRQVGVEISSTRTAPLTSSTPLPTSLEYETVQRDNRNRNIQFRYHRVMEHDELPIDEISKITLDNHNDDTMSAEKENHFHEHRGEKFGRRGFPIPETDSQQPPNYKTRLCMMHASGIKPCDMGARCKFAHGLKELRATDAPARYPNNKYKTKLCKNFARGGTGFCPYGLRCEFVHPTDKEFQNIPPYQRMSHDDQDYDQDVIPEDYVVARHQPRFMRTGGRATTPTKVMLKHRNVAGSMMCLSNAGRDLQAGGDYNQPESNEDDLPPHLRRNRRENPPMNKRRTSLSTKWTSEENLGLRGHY
Kind of test: potency of MEX-5 RNA-binding blockers – biochemical, C. elegans, fluorescence polarization, dose response (AID 1960).

The next test has as its target T3, Protein skinhead-1 (Caenorhabditis elegans, UniProt P34707).
T3 sequence (P34707 whole entry): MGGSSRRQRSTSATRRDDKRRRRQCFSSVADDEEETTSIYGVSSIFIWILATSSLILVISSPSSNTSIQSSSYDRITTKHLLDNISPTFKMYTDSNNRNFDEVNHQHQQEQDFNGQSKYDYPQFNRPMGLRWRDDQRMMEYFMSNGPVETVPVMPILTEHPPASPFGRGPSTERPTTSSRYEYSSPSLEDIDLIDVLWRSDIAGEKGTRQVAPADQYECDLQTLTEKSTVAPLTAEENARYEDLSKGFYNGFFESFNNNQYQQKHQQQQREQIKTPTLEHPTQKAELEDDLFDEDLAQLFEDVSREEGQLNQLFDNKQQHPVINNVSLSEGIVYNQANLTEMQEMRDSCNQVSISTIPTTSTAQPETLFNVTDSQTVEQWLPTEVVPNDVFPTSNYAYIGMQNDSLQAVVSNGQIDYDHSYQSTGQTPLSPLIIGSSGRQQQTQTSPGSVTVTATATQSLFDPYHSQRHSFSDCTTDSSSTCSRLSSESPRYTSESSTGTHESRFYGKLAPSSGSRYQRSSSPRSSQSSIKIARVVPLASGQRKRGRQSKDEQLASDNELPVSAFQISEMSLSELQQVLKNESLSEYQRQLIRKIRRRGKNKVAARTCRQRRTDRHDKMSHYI
The test is classed as functional.

A further test deals with T4, Leucine aminopeptidase (Plasmodium falciparum 3D7, UniProt Q8IL11).
T4 sequence (Q8IL11 whole entry): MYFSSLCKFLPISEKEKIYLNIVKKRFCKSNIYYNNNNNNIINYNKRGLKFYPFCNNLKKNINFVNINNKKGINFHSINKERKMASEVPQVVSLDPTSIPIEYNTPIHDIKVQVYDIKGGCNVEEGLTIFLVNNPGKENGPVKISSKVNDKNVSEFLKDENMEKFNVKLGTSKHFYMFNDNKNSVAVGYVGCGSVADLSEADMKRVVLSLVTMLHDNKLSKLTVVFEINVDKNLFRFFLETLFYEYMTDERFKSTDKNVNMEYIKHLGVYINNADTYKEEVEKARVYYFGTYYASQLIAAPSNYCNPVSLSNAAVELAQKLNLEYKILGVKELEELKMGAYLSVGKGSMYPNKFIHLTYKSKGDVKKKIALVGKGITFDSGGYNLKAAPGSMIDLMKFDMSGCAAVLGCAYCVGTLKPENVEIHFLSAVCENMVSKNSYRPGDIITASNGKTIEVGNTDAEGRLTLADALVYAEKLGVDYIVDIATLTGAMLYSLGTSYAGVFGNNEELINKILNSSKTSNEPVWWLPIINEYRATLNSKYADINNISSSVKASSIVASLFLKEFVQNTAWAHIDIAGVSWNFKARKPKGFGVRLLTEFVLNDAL
Kind of test: P. falciparum M17LAP inhibitors, primary screen, biochemical, fluorogenic H-Leu-NHMec substrate, 1536-well (AID 1619). The class given is functional.

Test [3] is described as follows: Luminescence Cell-Based Dose Retest to Confirm Inhibitors of Cancer Stem Cells. [Related pubchem assays (depositor defined):AID2717, AID2721]. The class given is functional. The following applies: Homo sapiens.
A short description of test [4]: microbe, parasite or virus in culture. The test is classed as functional. The settings on record: Mycobacterium tuberculosis.
The next test has as its target Cytochrome P450 2D6 (Homo sapiens, UniProt P10635).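 Also: CYP2D6 member of a cytochrome P450 panel assay.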
A further test deals with T5, Cytochrome P450 1A2 (Homo sapiens, UniProt P05177).
T5 sequence (P05177 whole entry): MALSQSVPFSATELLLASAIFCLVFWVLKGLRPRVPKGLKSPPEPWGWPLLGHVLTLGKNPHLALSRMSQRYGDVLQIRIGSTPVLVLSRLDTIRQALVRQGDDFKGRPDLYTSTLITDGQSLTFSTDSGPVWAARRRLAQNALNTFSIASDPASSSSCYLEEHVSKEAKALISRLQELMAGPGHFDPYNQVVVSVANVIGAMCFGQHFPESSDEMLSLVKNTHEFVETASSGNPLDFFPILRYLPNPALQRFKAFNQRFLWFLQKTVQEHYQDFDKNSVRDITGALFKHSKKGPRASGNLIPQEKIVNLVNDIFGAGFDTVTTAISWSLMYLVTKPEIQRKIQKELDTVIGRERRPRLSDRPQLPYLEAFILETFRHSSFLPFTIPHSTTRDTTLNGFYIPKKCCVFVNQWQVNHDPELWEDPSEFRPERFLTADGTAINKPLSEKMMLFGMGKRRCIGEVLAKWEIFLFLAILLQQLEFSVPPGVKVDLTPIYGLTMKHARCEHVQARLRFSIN

The next test concerns the target Cytochrome P450 3A4 (Homo sapiens, UniProt P08684).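 Also: CYP3A4 tested as one member of a cytochrome P450 panel screen.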
For another test, the system named is INS1. Kind of test: INS-1E survival protection against cytokine death – cell-based, luminescence, retest, dose response (AID 449756).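 Also: cell death triggered by IL-1 beta plus TNF-alpha plus IFN-gamma mixture; protective hits raise ATP signal compared with cytokine alone wells.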 The class given is functional. The settings on record: Rattus norvegicus.
For test [5], the system named is Streptococcus sp. 'group A'. Kind of test: Streptococcus pyogenes SK(-)GAS viability under kanamycin – luminescence, BacTiterGlo, confirmation, counter-screen for streptokinase expression inhibitor project, dose response (AID 1900). The class given is functional, organism-based.
The subject of the next test is Streptococcus. Kind of test: GAS UMAA2166 growth inhibition – luminescence, BacTiterGlo, counter-screen for streptokinase expression inhibitor project, dose response (AID 1915).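 Also: potency for reduction of bacterial viability or growth.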 The class given is functional, organism-based.

Sequence of Cytochrome P450 2D6 (P10635 whole entry): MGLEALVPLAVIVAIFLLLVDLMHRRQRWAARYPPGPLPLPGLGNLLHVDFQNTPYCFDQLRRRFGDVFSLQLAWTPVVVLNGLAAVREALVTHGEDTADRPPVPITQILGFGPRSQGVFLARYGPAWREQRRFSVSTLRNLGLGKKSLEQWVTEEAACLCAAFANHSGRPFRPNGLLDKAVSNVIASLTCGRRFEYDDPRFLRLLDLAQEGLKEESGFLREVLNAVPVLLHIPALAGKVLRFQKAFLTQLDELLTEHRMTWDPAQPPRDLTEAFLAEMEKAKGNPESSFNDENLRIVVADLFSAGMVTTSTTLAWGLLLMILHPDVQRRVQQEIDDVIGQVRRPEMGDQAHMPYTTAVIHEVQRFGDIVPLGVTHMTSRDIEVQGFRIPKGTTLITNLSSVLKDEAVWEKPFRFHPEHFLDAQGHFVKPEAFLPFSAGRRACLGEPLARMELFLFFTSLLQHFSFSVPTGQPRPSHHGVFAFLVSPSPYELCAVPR
Sequence of Cytochrome P450 3A4 (P08684 whole entry): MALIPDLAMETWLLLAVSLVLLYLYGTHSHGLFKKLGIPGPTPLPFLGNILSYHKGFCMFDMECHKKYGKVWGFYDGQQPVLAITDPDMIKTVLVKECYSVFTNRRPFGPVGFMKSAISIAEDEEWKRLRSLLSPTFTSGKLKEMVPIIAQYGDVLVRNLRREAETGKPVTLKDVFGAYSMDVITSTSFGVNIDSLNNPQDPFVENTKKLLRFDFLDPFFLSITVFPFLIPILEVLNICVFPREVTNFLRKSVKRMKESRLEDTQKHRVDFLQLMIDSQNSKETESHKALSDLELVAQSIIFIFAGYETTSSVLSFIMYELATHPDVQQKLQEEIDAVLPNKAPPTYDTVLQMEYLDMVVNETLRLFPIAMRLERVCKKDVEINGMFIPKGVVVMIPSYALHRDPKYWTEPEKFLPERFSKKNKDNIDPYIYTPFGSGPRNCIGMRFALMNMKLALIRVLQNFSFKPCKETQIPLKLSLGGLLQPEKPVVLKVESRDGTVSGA

As to `CCCCCCCCOc1ccc(C2OC34CCCCC3C(C#N)(C#N)C2(C#N)C(=N)O4)cc1` (configuration not stated), the EC50 in [1] was 13 µM (active); in [2] it was 11.8 µM (active).

Regarding `COc1ccc2c(c1)c(C(O)CN1CCN(Cc3ccc4c(c3)OCO4)CC1)c(C)n2C` (configuration not stated), on Protein skinhead-1, the IC50 was > 100 µM (inactive).

Regarding `CC(C)CCNC(=O)c1ccc2c(SCC(=O)O)c3c(nc2c1)CCCC3`, the IC50 on Leucine aminopeptidase was 39.2 µM (active).

As for `COc1ccc(N/C(=C(/C(Cl)=C(Cl)Cl)[N+](=O)[O-])n2nnc3ccccc32)cc1`, the EC50 in test [1] was 88.5 µM (active); in test [2] it was 49.1 µM (inconclusive).

In the case of `CCCc1cc(O)nc(SCC(=O)N(C)CC(=O)Nc2ccc(C)cc2)n1`, the IC50 at Leucine aminopeptidase is 9.77 µM (active).

Take `CN1CCN(c2ccc(NC(=O)COc3ccc(Cl)cc3Cl)cc2)CC1`: the AC50 in [3] is 2.6 µM (active).

As for `c1ccc(-c2csc(-c3ccncc3)n2)cc1`, at Protein skinhead-1, the IC50 is 4.05 µM (active).

In the case of `CC1=NNC(=O)C1CCC(=O)N/N=C/C(Br)=C/c1ccccc1` (configuration not stated), the half-maximal inhibitory concentration (IC50) on Leucine aminopeptidase was 8 µM (active).

Take `CCCSc1nnc(N2C(=O)C(O)=C(C(=O)c3ccco3)C2c2ccccc2F)s1` (configuration not stated): the EC50 was > 300 µM (inconclusive) in test [1] and > 300 µM (not active) in test [2].

On to `CCOCCCn1/c(=N/C(C)=O)c(C#N)cc2c(=O)n3ccccc3nc21`, for which the EC50 in test [1] and in [2] was > 300 µM (not active) throughout.

On to `CCCC(=O)Nc1ccc(C(=O)/C=C/c2ccc(SC)cc2)cc1`, for which, in test [4], the CC50 is > 40 µM (active). Further, the AC50 on Cytochrome P450 2D6 was 7.94 µM (inconclusive); on Cytochrome P450 1A2, 12.6 µM (inconclusive); on Cytochrome P450 3A4, 3.16 µM (inconclusive).

Turning to `CCOCCCNC(=O)C(c1ccc(Cl)cc1)N1CCC2(CC1)OCCO2` (configuration not stated), the IC50 at Protein skinhead-1 was > 100 µM (inactive).

Consider `O=C(C=Cc1cccs1)c1ccc(Cl)s1`, for which the IC50 at Protein skinhead-1 was 19.7 µM (active).

Take `O=C(CSc1nnc[nH]1)Nc1cccc2ccccc12`: the IC50 at Leucine aminopeptidase is 29.2 µM (active).

`CCn1c(C)c(C)c2cc(C(=O)N3CCc4ccccc4C3)ccc21`: in the test on INS1, the AC50 is 4.05 µM (active). Also, at Protein skinhead-1, the IC50 was > 100 µM (inactive).

Turning to `Cc1ccc(-c2nc(-c3ccncc3)no2)c(C)c1`, at Protein skinhead-1, the IC50 was 40.9 µM (active).

Consider `Cc1cccc(NC(=O)c2ccc(COc3ccc(Cl)cc3Cl)o2)n1`, for which the AC50 in test [3] is 1.18 µM (active).

Turning to `O=C1NC(=O)N(CC2CCCO2)C(=O)/C1=C/c1c[nH]c2ccccc12` (configuration not stated), the EC50 in test [1] and in test [2] was > 300 µM (not active) each time.

For the compound `CCn1cc(C=C2C(=O)NC(=O)NC2=O)c2ccccc21`, the results for the EC50 in test [1] and in test [2] were 28.7 µM (inconclusive) and > 300 µM (inconclusive), respectively.

In the case of `Cc1cc(C(=O)O)ccc1-n1c(C)cc(/C=C2\SC(=O)NC2=O)c1C`, the EC50 in test [1] and in test [2] was > 300 µM (not active) each time.

As to `C=CCn1c(CNC(=O)c2ccco2)nnc1SCC(=O)Nc1cccc(Br)c1`, the half-maximal inhibitory concentration (IC50) on Leucine aminopeptidase is 90.1 µM (active).

For `CCn1cc([N+](=O)[O-])c(C(=O)Nc2nc(-c3ccc(C)cc3)c(C)s2)n1`, in test [3], the AC50 is 4.24 µM (active).

For the compound `O=[N+]([O-])c1cccc(-c2csc(Nc3ccccc3)n2)c1`, in [3], the AC50 was 4.04 µM (active). Further, the IC50 on Protein skinhead-1 is > 100 µM (inactive).

Consider `Cc1cc(C)cc(NC(=O)CSc2ncc(S(=O)(=O)c3ccccc3)c(=O)[nH]2)c1`, for which the IC50 on Leucine aminopeptidase was 11.9 µM (active).

Turning to `CC1=C(C(=O)OCC2CCCO2)C(c2ccccc2OC(C)C)C2=C(O)CC(c3ccco3)CC2=N1` (configuration not stated), the IC50 on Protein skinhead-1 was > 100 µM (inactive).

Regarding `Cc1cc(C)c(NC(=O)CN2C(=O)NC3(CCCCC3)C2=O)c(Cl)c1`, the IC50 at Leucine aminopeptidase is 29.3 µM (active).

`O=C(/C=C/c1ccc(OCCCF)cc1)Nc1ccnc(-c2cccnc2)n1`: the EC50 was 22.8 µM (active) in test [1] and 20.6 µM (active) in test [2].

With `COc1ccc(-c2c[nH]nc2-c2ccc(OCC(=O)NN)cc2O)cc1OC`, the EC50 in [1] is > 300 µM (not active); in [2] it was 2.07 µM (active).

For the compound `CC1(C)CC[C@]2(CO)[C@@H](O)C[C@]3(C)C(=CCC4[C@@]5(C)CC[C@H](O)C(C)(C)C5CC[C@]43C)[C@@H]2C1` (some centres not stated), the AC50 in [3] was 3.14 µM (active).

As to `COc1ccc(CCNC(=O)COc2nsnc2N2CCOCC2)cc1OC`, at Protein skinhead-1, the IC50 was > 100 µM (inactive).

As for `Cc1ccc(C)c(NC(=O)CSc2nc(O)c3c(C(F)(F)F)cc(-c4cccs4)nc3n2)c1`, the EC50 in test [5] was 2.45 µM (active); in the test with Streptococcus, 3.04 µM (active). Moreover, in test [3], the AC50 was 2.92 µM (active).

Usually EC50 stands for the concentration at which the effect is half-maximal. As usually defined, the IC50 is the concentration that gives 50% inhibition. The AC50 is the midpoint of the concentration-response curve, whichever way the signal moves.

The values above are taken from ChEMBL document CHEMBL1201862, “PubChem BioAssay data set” (2004).
